Assay results published in patent publication US20250171449A1, “TRYPTANTHRIN DERIVATIVES WITH THIOSEMICARBAZONE SUBSTITUTION AND USE THEREOF” (UNIVERZITA KARLOVA, priority 2022, published 2025).

What was measured:
[1] = Interaction of tryptanthrin derivatives with transition metal ions (UV/Vis spectroscopy); type: binding; details: receptor 100 μM, ion 5000 μM
Procedure: First, the interaction of tryptanthrin derivatives 1 and 5 with metal ions was studied using UV/Vis spectroscopy. The receptor concentration was 100 μM and the ion concentration was 5000 μM.

RNA = test: Interaction with RNA by UV/Vis titration; type: binding
SARS-COV-2 = test: Antiviral effect: SARS-COV-2 RNA production in infected Vero cells (RT-qPCR of E-gene); type: cell-based; details: Vero in vitro model; 0-10 μM; 24 and 48 hours
Procedure: The cells in question (Vero cell line from African green monkey kidney; 1.5×10^5 cells per well) were infected with a SARS-COV-2 isolate provided by the Bioconservation Section of Techonin. The infectious inoculum contained 2.38×10^7 copies of the SARS-COV-2 E-gene. After 1 h inoculation, cells were supplemented with 1 ml of Dulbecco's modified Eagle's medium containing 2% fetal bovine serum (2% FBS-DMEM) and increasing concentrations (0-10 μM) of tryptanthrin derivatives 1 (PAA-TSC) and 5 (T8H-TSC), resp. After 24 and 48 hours of incubation, the growth of SARS-COV-2 was characterized in an aliquot of the culture supernatant by one-step RT-qPCR.
Viral RNA was isolated from 200 μl culture supernatant using magnetic beads. SARS-CoV-2 RNA was quantified by amplifying the E-gene of SARS-COV-2 (Generi Biotech) using the SensiFast Probe One-Step Kit (BioLine) and Light Cycler 480 II (Roche) using absolute quantification and calibration curve.

[2] = Binding constant with Fe^3+ ions by UV/Vis titration
Procedure: (§1) The association of tryptanthrin derivatives with ferrous and ferric ions was studied by UV/Vis spectroscopy in aqueous solution (water/DMSO, 99:1, v/v). […] Association constants (K) were calculated from absorbance changes (AA) in the spectral maximum of the derivative and in the spectral maximum of its complexes with Fe^2+/3+ ions by regression analysis. The concentration of tryptanthrin derivatives was 100 μM. The concentration of Fe^2+ and Fe^3+ ions fluctuated in the range of 0-5 mM. UV/Vis spectra were measured with a Shimadzu spectrophotometer in the range 220-900 nm with a step of 1 nm in a 1 cm plastic cuvette at a scanning speed of 300 nm.min^-1. The effect of different concentrations of Fe ions on the absorbance of substance 1 (PAA-TSC) is shown in FIGS. 5 and 6; that for substance 5 […]-TSC) in FIGS. 7 and 8.

DNA from salmon sperm = test: Interaction with DNA by UV/Vis titration; type: binding
[3] = Binding constant with Fe^2+ ions by UV/Vis titration
Procedure: as §1

[4] = stoichiometry (ion:ligand) 1:1, water/DMSO 99:1, derivative 100 μM
[5] = stoichiometry (NK:ligand) 1:2, phosphate buffer pH 7.00

Row | Compound | absorbance changes after addition of metal ions (selectivity for Fe^2+/Fe^3+) [1] | Log (K) association constant (RNA; stoichiometry (NK:ligand) 2:1, phosphate buffer pH 7.00) | inhibition of virus particle / CoV-2 RNA production (SARS-COV-2) | Log (K) association constant [2, 4] | Log (K) association constant ([2]; stoichiometry (ion:ligand) 1:2, water/DMSO 99:1, derivative 100 μM) | Log (K) association constant (DNA from salmon sperm; stoichiometry (NK:ligand) 1:1, phosphate buffer pH 7.00) | Log (K) association constant [3, 4] | Log (K) association constant (RNA; [5]) | Log (K) association constant (DNA from salmon sperm; [5]) | Log (K) association constant ([3]; stoichiometry (ion:ligand) 2:1, water/DMSO 99:1, derivative 100 μM)
1 | CC(CC1(O)c2ccccc2-n2c1nc1ccccc1c2=O)=NNC(N)=S (mixture of isomers) [derivative 1] | significant absorbance changes were observed only in the case of ferrous and ferric ions | 8.7 | inhibition of virus particle production | 6.0 | 10.2 | 7.4 | 1.5 | – | – | –
2 | NC(=S)NN=C1c2ccccc2-n2c1nc1ccccc1c2=O [derivative 5] | significant absorbance changes were observed only in the case of ferrous and ferric ions | – | inhibition of viral particle production | – | – | – | 4.9 | 7.3 | 6.0 | 7.1
